System: HCT-116 human colon cancer cells
Assay: Colony formation inhibition test on HCT-116 human colon cancer cells
Type: cell-based
Details: for Number of cell clones on HCT-116, mean / inhibition at 0.05 µM / inhibition at 0.15 µM / inhibition at 0.45 µM: 72 h treatment, then 7-10 days; for inhibition at 0.05 µM / inhibition at 0.15 µM / inhibition at 0.45 µM / IC50: Homo sapiens; for inhibition at 0.05 µM / inhibition at 0.15 µM / inhibition at 0.45 µM: HCT-116, read-out: % inhibition (colony formation inhibition rate); for IC50: HCT-116 cells, dose-response 50, 150, 450 nM, read-out: IC50 value (colony formation inhibition, FIG. 7)
Protocol: 1. The colony formation inhibition test was used to evaluate the effect of four exemplary candidate compounds (D1, D2, D3, and D4) having concentrations of 50 nM, 150 nM and 450 nM on inhibiting cell proliferation of HCT-116 human colon cancer cells line.
2. Experiment material includes cell lines. HCT-116 human colon cancer cell line was purchased from the Chinese Academy of Sciences Shanghai Cell Resource Center, Cat # TCHu 99.
3. Reagent preparation includes HCT-116 human colon cancer cell culture medium, e.g., Dulbecco's Modified Eagle's medium (DMEM) medium with 10% fetal bovine serum (FBS). Compound solutions were prepared by dissolving and diluting the above synthesized compounds in dimethyl sulfoxide (DMSO) to a final concentration of about 100 μM.
Cell staining solution was prepared including 0.5% crystal violet solution prepared using absolute or anhydrous ethanol, and stored in dark. Before staining, the solution was mixed with phosphate buffered saline (PBS) buffer solution by volume ratio of 1:4 as the cell staining solution.
4. Cell culture: cells in logarithmic growth phase were collected, counted, and resuspended in complete culture medium. The cell concentration was adjusted to an appropriate concentration, 6-well culture plates were seeded, with about 300 cells and 1.8 mL of culture medium in each well. Cells were incubated for about 5 hours in an incubator at about 37° C. and about 100% relative humidity and under 5% CO2.
5. Cell colony formation inhibition test and data processing were performed including, for example, (a)-(i) as follows.
(a) Cells in logarithmic growth phase were collected and counted. The cells were re-suspended in culture medium containing 5% FBS, and counted. Six-well plates were seeded according to a rate of 300 cells per well. Cells were incubated for about 5 hours in an incubator at about 37° C. with 100% relative humidity and under 5% CO2.
(b) The compounds were diluted with culture medium (containing 5% FBS) to be concentrations of about 0.5 μM, 1.5 μM and 4.5 μM. Adding the compounds to cells in 200 μL per well, the final concentrations of the compounds were about 50 nM, 150 nM and 450 nM. Each concentration point was repeatedly tested for three times.
(c) Cells were incubated for about 72 hours in an incubator at 37° C. with 100% relative humidity and under 5% CO2. (d) The culture medium from the plates (the culture medium containing the compound(s) was aspirated. The plates were rinsed with Hank's Balance Salt Solution (HBSS) twice, and replaced with fresh culture medium (DMEM medium with 15% FBS).
(e) Cells were incubated for about 7-10 days in an incubator at about 37° C. and 100% relative humidity and under 5% CO2, until the formation of visible cloned plaques. (f) The culture medium was aspirated from the plates. The plates were rinsed twice with PBS solution. (g) The residual PBS was absorbed and removed, and ethanol was added at 1 mL per plate, fixing for 30 minutes.
(h) Ethanol was absorbed and removed, and cell staining solution was added, stained for 3 minutes. (i) The staining solution was aspirated. After rinsing three times with PBS, the cells were counted.
Data processing was performed. Cloning formation efficiency=[As/Ac]×100%; and colony formation inhibition rate=1−cloning formation efficiency, where As denotes number of cell colonies in compound-treated group (cells+compounds to be tested), and Ac denotes number of cell colonies in negative control (without treating with compound) (cells+1% DMSO).

Structure (SMILES)	Number of cell clones on HCT-116, mean (50 nM)	Number of cell clones on HCT-116, mean (150 nM)	Number of cell clones on HCT-116, mean (450 nM)	inhibition at 0.05 µM (50 nM)	inhibition at 0.15 µM (150 nM)	inhibition at 0.45 µM (450 nM)	IC50
O=C(CCCC(=O)OC[C@H]1O[C@@H](n2ccc(NC(=O)OCc3ccccc3)nc2=O)C(F)(F)[C@@H]1O)OC[C@H]1O[C@@H](n2ccc(NC(=O)OCc3ccccc3)nc2=O)C(F)(F)[C@@H]1O [Compound D3, 1,5-di-[4-N-(benzyloxycarbonyl)-2′-deoxy-2′,2′-difluoro-cytidine]glutarate]	237	20	4	1.66%	91.7%	98.3%	~99.8 nM
CCCCOC(=O)Nc1ccn([C@H]2O[C@@H](COC(=O)CCC(=O)OC[C@H]3O[C@@H](n4ccc(NC(=O)OCCCC)nc4=O)C(F)(F)[C@@H]3O)[C@H](O)C2(F)F)c(=O)n1 (stereo in doubt) [Compound D2, 1,5-di-[4-N-(n-butoxycarbonyl)-2′-deoxy-2′,2′-difluoro-cytidine]glutarate]	243	191	36	4.7%	25.1%	85.9%	~227 nM
CCCCOC(=O)Nc1ccn(C2OC(COC(=O)CCCC(=O)OC[C@H]3O[C@@H](n4ccc(NC(=O)OCCCC)nc4=O)C(F)(F)[C@@H]3OC(=O)OCCCC)C(OC(=O)OCCCC)C2(F)F)c(=O)n1 (stereo in doubt) [Compound D1, 1,5-di-[4-N-(n-butyloxycarbonyl)-3′-O-(n-butoxycarbonyl)-2′-deoxy-2′,2′-difluoro-cytidine]glutarate]	242	188	52	3.58%	25.1%	79.3%	~245 nM
CCCCOC(=O)Nc1ccn(C2OC(COC(=O)CCC(=O)OC[C@H]3O[C@@H](n4ccc(NC(=O)OCc5ccccc5)nc4=O)C(F)(F)[C@@H]3O)C(O)C2(F)F)c(=O)n1 (stereo in doubt) [Compound D4, 1-O-(4-N-(Benzyloxycarbonyl)-gemcitabine)-4-O-(4-N-(n-Butoxycarbonyl)-gemcitabine)-succinate]	235	75	11	8.2%	70.7%	95.7%	~112 nM
